The text below walks through data of PMC6407204, “Oral administration of the cannabigerol derivative VCE-003.2 promotes subventricular zone neurogenesis and protects against mutant huntingtin-induced neurodegeneration” (Translational Neurodegeneration, 2019).

“Also recorded” adds a separate entry of the source.

Data set [1] has as its system CTIP2 transcriptional activity. The experiment in a line: CTIP2 luciferase transcriptional reporter assay (A4-MARS) in P19 cells. The settings on record: 24 h after transfection, neuronal differentiation conditions, vs vehicle. The class given is cell-based, mouse. As to the method: All reagents, unless indicated, were from Sigma-Aldrich (St. Louis, MO, USA). The synthesis and structure of VCE-003.2 were previously described. Mouse embryonic teratocarcinoma P19 were cultured in high-glucose DMEM (Invitrogen) supplemented with 10% fetal bovine serum and 1% penicillin/streptomycin. P19 cells were plated in 24-well plates and transfected with Lipofectamine 2000 reagent according to the manufacture’s protocol (Invitrogen). Twenty-four hours post transfection, cells were collected for RNA extraction or luciferase assay determinations. P19 neurosphere formation assay was performed using dissociated P19 cells cultured in high-glucose DMEM (Invitrogen) supplemented with 5% of fetal bovine serum and 0. 5 μM retinoic acid. Twenty-four hours later the mean neurosphere size was quantified. Luciferase construct with the MAR sequence A4 of the Ctip2 promoter was kindly provided (R. Grosschedl, Max-Planck-Institute of Immunobiology and Epigenetics, Freiburg, Germany).
To study CTIP2 transcriptional activity P19 cells were seeded in 24-well plates and transiently co-transfected with the luciferase reporter vector MARS-A4-luc using Roti-Fect (Carl Roth, Karlsruhe, Germany) following the manufacturer’s instructions. […] After stimulation, the luciferase activities were quantified using Dual-Luciferase Assay (Promega, Madison, WI, USA). […]
(In a reporter assay the amount or activity of a reporter protein is the signal.)

A short description of data set [2]: Microsomal metabolic stability. The method, then: The final incubation volume was 25 μL. […] The reactions were stopped by the addition of 50 μL methanol containing internal standard at the appropriate time points. The incubation plates were centrifuged at 2500 rpm for 20 min at 4 °C to precipitate the protein. Following protein precipitation, the sample supernatants were analyzed using LC-MS/MS. From a plot of ln peak area ratio (compound peak area/internal standard peak area) against time, the gradient of the line was determined. Subsequently, half-life and intrinsic clearance was calculated using the equations below: Elimination rate constant (k) = (− gradient).

Data set [3] concerns S. typhimurium TA98 and S. typhimurium TA100. Kind of data set: AMES reverse mutation assay, overall statement. Type of data set: cell-based. The note with it: absence and presence of S9 metabolic activation. As to the method:
Supplementary file 40035_2019_148_MOESM4_ESM.pdf: Additional file 4: AMES Data Summary. AMES Experimental Procedure. Approximately ten million bacteria are exposed in triplicate to VCE-003-.2 (7.8, 15.6, 31.3, 62.5, 125 and 250 μg/ml), a negative control (vehicle) and a positive control for 90 min in medium containing a low concentration of histidine (sufficient for about 2 doublings). The cultures were then diluted into indicator medium lacking histidine and dispensed into 48 wells of a 384 well plate (micro-plate format, MPF). The plate was incubated for 48 h at 37 °C, and the number of wells showing growth were counted and compared to the vehicle control. An increase in the number of colonies of at least two-fold over baseline (mean + SD of the vehicle control) and a dose response indicates a positive response. […] Where indicated, S9 fraction from the livers of Aroclor 1254-treated rats was included in the incubation at a final concentration of 4.5%. An NADPH-regenerating system is also included to ensure a steady supply of reducing equivalents. The strains used in this study were S. typhimurium TA98 (hisD3052, rfa, uvrB/pKM10 for detection of frame-shift mutations) and S. typhimurium TA100 ([…], rfa, uvrB/pKM101 for detection of base-pair substitutions). VCE-003.2 was assessed for its mutagenic potential in the AMES reverse mutation assay. […]

For orientation: half-life means the time needed for the level to fall by half in the phase considered. Low values mean fast loss, high ones slow loss. As usually defined, the microsomal CLint is the capacity of the preparation to metabolise the compound, expressed as a volume cleared per time. High values mean faster metabolism, low ones greater metabolic stability. As for `CCCCCC1=C(NCC)C(=O)C(CC=C(C)CCC=C(C)C)=C(O)C1=O` [VCE-003.2, 2-(3,7-dimethyl-octa-2,6-dienyl)-6-ethylamino-3-hydroxy-5-pentyl-(1,4) benzoquinone], in data set [1], the “CTIP2 reporter (A4-MARS luciferase) activity” value is listed as “CTIP2 reporter activation”. The “intrinsic clearance in vitro (in words)” value in data set [2] (human liver microsomes) is given as “rapid intrinsic clearance”. In data set [2] (human, microsomes, pH 7.4), this molecule returned a half-life of 10.6 min and a microsomal CLint of 131 µL/min/mg. Besides, in data set [3], the “genotoxicity in AMES assay (in words)” value was “not genotoxic; also recorded: negative for genotoxicity”.
